System: Emesis in the dog
Experiment: Emesis in the dog (apomorphine-induced retching and vomiting)
Format: in vivo
Settings: dose of 0.32 mg/kg i.v., 5 min before subcutaneous apomorphine (0.1 mg/0.5 ml/kg), observed for 60 min
Experimental: Individually housed adult female dogs (8 to 15 kg) were given an i.v. injection of a solution containing a test compound. 5 Min later the emetic responses (retching and vomiting) were induced by administration of subcutaneous apomorphine (0.1 mg/0.5 ml/kg) and observed for the next 60 min. The timing and number of retches and vomits observed were recorded for each animal. An individual animal was tested with at least 10 days between experiments.

Row | Structure (SMILES) | inhibition rate of emesis in the dog [%]
1 | Cc1ccc(CC2CN(CCN3C[C@@H](C)O[C@@H](C)C3)CCN2C(=O)c2cc(C(F)(F)F)cc(C(F)(F)F)c2)cc1O.Cl.Cl (relative stereo) [Example 4-(1), 1-[3,5-Bis(trifluoromethyl)benzoyl]-4-[2-(cis-2,6-dimethylmorpholino)ethyl]-2-(3-hydroxy-4-methylbenzyl)piperazine dihydrochloride] | 100

System: not given
Experiment: not given
Settings: not given

Row | Structure (SMILES) | melting point [°C]
2 | Cl.Cl.O=C(c1cc(C(F)(F)F)cc(C(F)(F)F)c1)N1CCN(CCCc2cccnc2)C[C@H]1Cc1ccc(Cl)cc1 | 60 to 100
3 | COc1cc(C(=O)N2CCN(Cc3cnn(C)c3)C[C@H]2Cc2ccc(Cl)c(O)c2)cc(C(F)(F)F)c1.Cl | 140 to 150
4 | Cc1ccc(C[C@@H]2CN(Cc3cnn(CCO)c3)CCN2C(=O)c2cc(C(F)(F)F)cc(C(F)(F)F)c2)cc1O.Cl | 140 to 156
5 | Cc1ccc(C[C@@H]2CN(CCN3CCc4sccc4C3)CCN2C(=O)c2cc(C(F)(F)F)cc(C(F)(F)F)c2)cc1O.Cl.Cl | 245 to 265
6 | C[C@@H]1CN(CCN2CCN(C(=O)c3cc(C(F)(F)F)cc(S(=O)(=O)N(C)C)c3)[C@H](Cc3ccc(Cl)cc3)C2)C[C@H](C)O1.Cl.Cl | 209.6 to 213.7
7 | C[C@@H]1CN(CCN2CCN(C(=O)c3cc(-n4cccc4)cc(C(F)(F)F)c3)[C@H](Cc3ccc(Cl)cc3)C2)C[C@H](C)O1.Cl.Cl | 152.7 to 157.9
8 | C[C@@H]1CN(CCN2CCN(C(=O)c3cc(Cl)cc(C(F)(F)F)c3)[C@H](Cc3ccc(Cl)cc3)C2)C[C@H](C)O1.Cl.Cl | 136.4 to 141
9 | Cc1cc(C(=O)N2CCN(CCN3C[C@@H](C)O[C@@H](C)C3)C[C@H]2Cc2ccc(Cl)cc2)cc(C(F)(F)F)c1.Cl.Cl | 82.3 to 88.2
10 | COC[C@@H]1CN(CC#CCN2CCN(C(=O)c3cc(C(F)(F)F)cc(C(F)(F)F)c3)[C@H](Cc3ccc(C)c(O)c3)C2)CCO1.Cl.Cl | 110 to 130
11 | Cc1ccc(C[C@@H]2CN(Cc3nc(N(C)C)no3)CCN2C(=O)c2cc(C(F)(F)F)cc(C(F)(F)F)c2)cc1O.Cl.Cl | 140 to 150
12 | COC[C@@H]1CN(CCN2CCN(C(=O)c3cc(C(F)(F)F)cc(C(F)(F)F)c3)[C@H](Cc3ccc(C(F)(F)F)cc3)C2)C[C@H](COC)O1.Cl.Cl | 130 to 138
13 | COC[C@@H]1C[C@@H](OC)CN1CCN1CCN(C(=O)c2cc(C(F)(F)F)cc(C(F)(F)F)c2)[C@H](Cc2ccc(Cl)c(O)c2)C1.Cl.Cl | 95 to 105
14 | CS(=O)(=O)c1cc(C(=O)N2CCN(CCN3CCc4ncccc4C3)C[C@H]2Cc2ccc(C(F)(F)F)cc2)cc(C(F)(F)F)c1.Cl.Cl.Cl | 192 to 197
15 | CO[C@H]1CN(CCN2CCN(C(=O)c3cc(C(F)(F)F)cc(C(F)(F)F)c3)[C@H](Cc3ccc(C(F)(F)F)cc3)C2)C[C@@H]1OC.Cl.Cl | 203 to 208
16 | C[C@@H]1CN(CCN2CCN(C(=O)c3cc(-c4ccncc4)cc(C(F)(F)F)c3)[C@H](Cc3ccc(C(F)(F)F)cc3)C2)C[C@H](C)O1.Cl.Cl.Cl | 135 to 145
17 | COC[C@@H]1CN(CCN2CCN(C(=O)c3cc(C(F)(F)F)cc(S(=O)(=O)C4CCCC4)c3)[C@H](Cc3ccc(Cl)cc3)C2)CCO1.Cl.Cl | > 230

Row | Structure (SMILES) | melting point [°C]
18 | COC[C@@H]1CN(CCN2CCN(C(=O)c3cc(Cl)cc(C(F)(F)F)c3)[C@H](Cc3ccc(Cl)cc3)C2)CCO1.Cl.Cl | 148 to 153
19 | Cl.Cl.O=C(c1cc(C(F)(F)F)cc(C(F)(F)F)c1)N1CCN(Cc2cccnc2)C[C@H]1Cc1ccc(F)c(F)c1 | 203 to 208
20 | Cl.Cl.Cl.O=C(c1cc(C(F)(F)F)cc(C(F)(F)F)c1)N1CCN(CCN2CCc3ncccc3C2)C[C@H]1Cc1ccc(C(F)(F)F)cc1 | 174 to 180
21 | CC1(C)COCCN1CC#CCN1CCN(C(=O)c2cc(C(F)(F)F)cc(C(F)(F)F)c2)[C@H](Cc2ccc(Cl)cc2)C1.Cl.Cl | 120 to 150
22 | COC[C@@H]1CN(CCN2CCN(C(=O)c3cc(OC)cc(C(F)(F)F)c3)[C@H](Cc3ccc(F)cc3)C2)CCO1.Cl.Cl | 109.5 to 119.2
23 | Cl.Cl.O=C(c1cc(C(F)(F)F)cc(C(F)(F)F)c1)N1CCN(CCN2CCC(F)(F)CC2)C[C@H]1Cc1ccc2ccccc2c1 | > 250
24 | COc1cc(C(=O)N2CCN(Cc3cccnc3)C[C@H]2Cc2c[nH]c3ccccc23)cc(C(F)(F)F)c1.Cl.Cl | 190 to 200
25 | COc1cc(C(=O)N2CCN(CCN3CCc4ncccc4C3)C[C@H]2Cc2c[nH]c3ccccc23)cc(C(F)(F)F)c1.Cl.Cl.Cl | 180 to 190
26 | Cc1ccc(CC2CN(CCN3C[C@@H](C)O[C@@H](C)C3)CCN2C(=O)c2cc(C(F)(F)F)cc(C(F)(F)F)c2)cc1O.Cl.Cl (relative stereo) [Example 4-(1), 1-[3,5-Bis(trifluoromethyl)benzoyl]-4-[2-(cis-2,6-dimethylmorpholino)ethyl]-2-(3-hydroxy-4-methylbenzyl)piperazine dihydrochloride] | 188 to 200
27 | COC[C@@H]1CN(CCN2CCN(C(=O)c3cc(C(F)(F)F)cc(C(F)(F)F)c3)C(Cc3ccc(C)c(O)c3)C2)[C@@H](C)CO1.Cl.Cl (stereo partly drawn) [4-(2), 1-[3,5-Bis(trifluoromethyl)benzoyl]-2-(3-hydroxy-4-methylbenzyl)-4-[2-[(2S,5S)-2-methoxymethyl-5-methylmorpholino]ethyl]piperazine dihydrochloride] | 214 to 218
28 | COC[C@@H]1CN(CCN2CCN(C(=O)c3cc(C(F)(F)F)cc(C(F)(F)F)c3)[C@H](Cc3ccc(C)c(O)c3)C2)CCO1.Cl.Cl [Example 5-(1)] | 207 to 210
29 | Cc1ccc(CC2CN(CC#Cc3cccnc3)CCN2C(=O)c2cc(C(F)(F)F)cc(C(F)(F)F)c2)cc1O.Cl.Cl (centres unmarked) [Example 7, 1-[3,5-bis(trifluoromethyl)benzoyl]-2-(3-hydroxy-4-methylbenzyl)-4-[3-(3-pyridyl)-2-propynyl]piperazine dihydrochloride] | 180 to 190
30 | Cc1ccc(CC2CN(CCCc3cccnc3)CCN2C(=O)c2cc(C(F)(F)F)cc(C(F)(F)F)c2)cc1O.Cl.Cl (centres unmarked) [Example 8, 1-[3,5-bis(trifluoromethyl)benzoyl]-2-(3-hydroxy-4-methylbenzyl)-4-[3-(3-pyridyl)propyl]piperazine dihydrochloride] | 60 to 70
31 | O=C(c1cc(C(F)(F)F)cc(C(F)(F)F)c1)N1CCN(CC#Cc2cccnc2)C[C@H]1Cc1ccc(C(F)(F)F)cc1 [Example 9-(53), (2R)-1-[3,5-Bis(trifluoromethyl)benzoyl]-4-[3-(3-pyridyl)-2-propynyl]-2-[4-(trifluoromethyl)benzyl]-piperazine] | 142 to 143
32 | COC[C@@H]1CN(CCN2CCN(C(=O)c3cc(C(F)(F)F)cc(C(F)(F)F)c3)[C@H](Cc3ccc(C)c(O)c3)C2)CCO1.Cl.Cl [Example 13] | 206 to 224.5
